# According to patent publication US20060235076A1, “Medicinal composition for treating infection with drug-resistant staphylococcus aureus” (priority 2003, published 2006):
# “Also recorded” adds a separate entry of the source.
# Test system: MRSA
# Assay: Potentiating effect of galloyl quinic acid derivatives for the antibacterial activity of oxacillin (agar plate dilution method, MIC)
# Format: cell-based, Staphylococcus aureus
# Protocol: According to the agar plate dilution method defined by Japan Society of Chemotherapy, MIC (Minimum inhibitory concentration) was determined. CAMHA was prepared by adding 50 mg/l of Ca-ion, 25 mg/l of Mg-ion, and 2% of NaCl to Mueller-Hinton II Agar (MHA), and it was used as a medium for use in the measurement of sensitivity. The bacterial liquid was incubated at 37° C. overnight and diluted to 10^6 CFU/ml with saline.
# It was confirmed that the known substances shown below were contained in “Tara” and their MICs were determined as described in example 2 with respect to the effects of the combination use with oxacillin
# [1] = ATCC 6538, with 12.5 μg/ml of compound
# [2] = ATCC 6538, with 25 μg/ml of compound
# [3] = ATCC 6538, with 50 μg/ml of compound
# [4] = MRSA 1, with 12.5 μg/ml of compound
# [5] = MRSA 1, with 25 μg/ml of compound
# [6] = MRSA 1, with 50 μg/ml of compound
# [7] = MRSA 2, with 12.5 μg/ml of compound
# [8] = MRSA 2, with 25 μg/ml of compound
# [9] = MRSA 2, with 50 μg/ml of compound
# [10] = MRSA 3, with 12.5 μg/ml of compound
# [11] = MRSA 3, with 25 μg/ml of compound
# [12] = MRSA 3, with 50 μg/ml of compound
# [13] = MRSA 4, with 12.5 μg/ml of compound
# [14] = MRSA 4, with 25 μg/ml of compound
# [15] = MRSA 4, with 50 μg/ml of compound
# [16] = MRSA 5, with 12.5 μg/ml of compound
# [17] = MRSA 5, with 25 μg/ml of compound
# [18] = MRSA 5, with 50 μg/ml of compound
# [19] = MRSA 6, with 12.5 μg/ml of compound
# [20] = MRSA 6, with 25 μg/ml of compound
# [21] = MRSA 6, with 50 μg/ml of compound
# [22] = MRSA 7, with 12.5 μg/ml of compound
# [23] = MRSA 7, with 25 μg/ml of compound
# [24] = MRSA 7, with 50 μg/ml of compound
# [25] = MRSA 8, with 12.5 μg/ml of compound
# [26] = MRSA 8, with 25 μg/ml of compound
# [27] = MRSA 8, with 50 μg/ml of compound
# [28] = MRSA 9, with 12.5 μg/ml of compound
# [29] = MRSA 9, with 25 μg/ml of compound
# [30] = MRSA 9, with 50 μg/ml of compound
# [31] = MRSA 10, with 12.5 μg/ml of compound
# [32] = MRSA 10, with 25 μg/ml of compound
# [33] = MRSA 10, with 50 μg/ml of compound
# [34] = MRSA 12, with 12.5 μg/ml of compound
# [35] = MRSA 12, with 25 μg/ml of compound
# [36] = MRSA 12, with 50 μg/ml of compound
# [37] = MRSA 16, with 12.5 μg/ml of compound
# [38] = MRSA 16, with 25 μg/ml of compound
# [39] = MRSA 16, with 50 μg/ml of compound
# [40] = MRSA 17, with 12.5 μg/ml of compound
# [41] = MRSA 17, with 25 μg/ml of compound
# [42] = MRSA 17, with 50 μg/ml of compound
# [43] = MRSA 18, with 12.5 μg/ml of compound
# [44] = MRSA 18, with 25 μg/ml of compound
# [45] = MRSA 18, with 50 μg/ml of compound
# [46] = MRSA 20, with 12.5 μg/ml of compound
# [47] = MRSA 20, with 25 μg/ml of compound
# [48] = MRSA 20, with 50 μg/ml of compound
# [49] = MRSA 21, with 12.5 μg/ml of compound
# [50] = MRSA 21, with 25 μg/ml of compound
# [51] = MRSA 21, with 50 μg/ml of compound
# [52] = MRSA 22, with 12.5 μg/ml of compound
# [53] = MRSA 22, with 25 μg/ml of compound
# [54] = MRSA 22, with 50 μg/ml of compound
# [55] = MRSA COL, with 12.5 μg/ml of compound
# [56] = MRSA COL, with 25 μg/ml of compound
# [57] = MRSA COL, with 50 μg/ml of compound
# [58] = MSSA 1003, with 12.5 μg/ml of compound
# [59] = MSSA 1003, with 25 μg/ml of compound
# [60] = MSSA 1003, with 50 μg/ml of compound
# [61] = MSSA 1010, with 12.5 μg/ml of compound
# [62] = MSSA 1010, with 25 μg/ml of compound
# [63] = MSSA 1010, with 50 μg/ml of compound
# [64] = MSSA 1032, with 12.5 μg/ml of compound
# [65] = MSSA 1032, with 25 μg/ml of compound
# [66] = MSSA 1032, with 50 μg/ml of compound
# [67] = RN4220, with 12.5 μg/ml of compound
# [68] = RN4220, with 25 μg/ml of compound
# [69] = RN4220, with 50 μg/ml of compound
structure (smiles),measurement,setting,value
COC(=O)C1(O)CC(OC(=O)c2cc(O)c(O)c(O)c2)C(OC(=O)c2cc(O)c(O)c(O)c2)C(OC(=O)c2cc(O)c(O)c(O)c2)C1 (stereo not shown) [compound 2],Oxacillin MIC,[1],<0.5 µg/mL
same,Oxacillin MIC,[2],<0.5 µg/mL
same,Oxacillin MIC,[3],<0.5 µg/mL
same,Oxacillin MIC,[4],>256 µg/mL
same,Oxacillin MIC,[5],>256 µg/mL
same,Oxacillin MIC,[6],>256 µg/mL
same,Oxacillin MIC,[7],256 µg/mL
same,Oxacillin MIC,[8],32 µg/mL
same,Oxacillin MIC,[9],32 µg/mL
same,Oxacillin MIC,[10],64 µg/mL
same,Oxacillin MIC,[11],32 µg/mL
same,Oxacillin MIC,[12],32 µg/mL
same,Oxacillin MIC,[13],256 µg/mL
same,Oxacillin MIC,[14],256 µg/mL
same,Oxacillin MIC,[15],256 µg/mL
same,Oxacillin MIC,[16],>256 µg/mL
same,Oxacillin MIC,[17],256 µg/mL
same,Oxacillin MIC,[18],256 µg/mL
same,Oxacillin MIC,[19],128 µg/mL
same,Oxacillin MIC,[20],32 µg/mL
same,Oxacillin MIC,[21],64 µg/mL
same,Oxacillin MIC,[22],256 µg/mL
same,Oxacillin MIC,[23],128 µg/mL
same,Oxacillin MIC,[24],64 µg/mL
same,Oxacillin MIC,[25],64 µg/mL
same,Oxacillin MIC,[26],64 µg/mL
same,Oxacillin MIC,[27],64 µg/mL
same,Oxacillin MIC,[28],>256 µg/mL
same,Oxacillin MIC,[29],256 µg/mL
same,Oxacillin MIC,[30],128 µg/mL
same,Oxacillin MIC,[31],64 µg/mL
same,Oxacillin MIC,[32],64 µg/mL
same,Oxacillin MIC,[33],64 µg/mL
same,Oxacillin MIC,[34],256 µg/mL
same,Oxacillin MIC,[35],128 µg/mL
same,Oxacillin MIC,[36],256 µg/mL
same,Oxacillin MIC,[37],>255 µg/mL
same,Oxacillin MIC,[38],256 µg/mL
same,Oxacillin MIC,[39],256 µg/mL
same,Oxacillin MIC,[40],128 µg/mL
same,Oxacillin MIC,[41],256 µg/mL
same,Oxacillin MIC,[42],256 µg/mL
same,Oxacillin MIC,[43],256 µg/mL
same,Oxacillin MIC,[44],128 µg/mL
same,Oxacillin MIC,[45],128 µg/mL
same,Oxacillin MIC,[46],8 µg/mL
same,Oxacillin MIC,[47],2 µg/mL
same,Oxacillin MIC,[48],4 µg/mL
same,Oxacillin MIC,[49],32 µg/mL
same,Oxacillin MIC,[50],8 µg/mL
same,Oxacillin MIC,[51],16 µg/mL
same,Oxacillin MIC,[52],32 µg/mL
same,Oxacillin MIC,[53],16 µg/mL
same,Oxacillin MIC,[54],32 µg/mL
same,Oxacillin MIC,[55],256 µg/mL
same,Oxacillin MIC,[56],128 µg/mL
same,Oxacillin MIC,[57],128 µg/mL
same,Oxacillin MIC,[58],<0.5 µg/mL
same,Oxacillin MIC,[59],<0.5 µg/mL
same,Oxacillin MIC,[60],<0.5 µg/mL
same,Oxacillin MIC,[61],<0.5 µg/mL
same,Oxacillin MIC,[62],<0.5 µg/mL
same,Oxacillin MIC,[63],<0.5 µg/mL
same,Oxacillin MIC,[64],<0.5 µg/mL
same,Oxacillin MIC,[65],<0.5 µg/mL
same,Oxacillin MIC,[66],<0.5 µg/mL
same,Oxacillin MIC,[67],<0.5 µg/mL
same,Oxacillin MIC,[68],<0.5 µg/mL
same,Oxacillin MIC,[69],<0.5 µg/mL
COC(=O)C1(O)CC(O)C(OC(=O)c2cc(O)c(O)c(O)c2)C(OC(=O)c2cc(O)c(O)c(O)c2)C1 (stereo not shown) [compound 1],Oxacillin MIC,[1],<0.5 µg/mL
same,Oxacillin MIC,[2],<0.063 µg/mL
same,Oxacillin MIC,[3],<0.5 µg/mL
same,Oxacillin MIC,[4],128 µg/mL
same,Oxacillin MIC,[5],128 µg/mL
same,Oxacillin MIC,[6],128 µg/mL
same,Oxacillin MIC,[7],2 µg/mL
same,Oxacillin MIC,[8],2 µg/mL
same,Oxacillin MIC,[9],2 µg/mL
same,Oxacillin MIC,[10],<0.5 µg/mL
same,Oxacillin MIC,[11],0.5 µg/mL
same,Oxacillin MIC,[12],1 µg/mL
same,Oxacillin MIC,[13],128 µg/mL
same,Oxacillin MIC,[14],128 µg/mL
same,Oxacillin MIC,[15],32 µg/mL
same,Oxacillin MIC,[16],128 µg/mL
same,Oxacillin MIC,[17],32 µg/mL
same,Oxacillin MIC,[18],64 µg/mL
same,Oxacillin MIC,[19],2 µg/mL
same,Oxacillin MIC,[20],2 µg/mL
same,Oxacillin MIC,[21],4 µg/mL
same,Oxacillin MIC,[22],32 µg/mL
same,Oxacillin MIC,[23],16 µg/mL
same,Oxacillin MIC,[24],16 µg/mL
same,Oxacillin MIC,[25],<0.5 µg/mL
same,Oxacillin MIC,[26],16 µg/mL
same,Oxacillin MIC,[27],1 µg/mL
same,Oxacillin MIC,[28],16 µg/mL
same,Oxacillin MIC,[29],16 µg/mL
same,Oxacillin MIC,[30],8 µg/mL
same,Oxacillin MIC,[31],4 µg/mL
same,Oxacillin MIC,[32],8 µg/mL
same,Oxacillin MIC,[33],8 µg/mL
same,Oxacillin MIC,[34],16 µg/mL
same,Oxacillin MIC,[35],16 µg/mL
same,Oxacillin MIC,[36],16 µg/mL
same,Oxacillin MIC,[37],128 µg/mL
same,Oxacillin MIC,[38],128 µg/mL
same,Oxacillin MIC,[39],64 µg/mL
same,Oxacillin MIC,[40],32 µg/mL
same,Oxacillin MIC,[41],32 µg/mL
same,Oxacillin MIC,[42],4 µg/mL
same,Oxacillin MIC,[43],128 µg/mL
same,Oxacillin MIC,[44],128 µg/mL
same,Oxacillin MIC,[45],32 µg/mL
same,Oxacillin MIC,[46],<0.5 µg/mL
same,Oxacillin MIC,[47],0.25 µg/mL
same,Oxacillin MIC,[48],<0.5 µg/mL
same,Oxacillin MIC,[49],<0.5 µg/mL
same,Oxacillin MIC,[50],0.25 µg/mL
same,Oxacillin MIC,[51],1 µg/mL
same,Oxacillin MIC,[52],1 µg/mL
same,Oxacillin MIC,[53],0.5 µg/mL
same,Oxacillin MIC,[54],1 µg/mL
same,Oxacillin MIC,[55],8 µg/mL
same,Oxacillin MIC,[56],32 µg/mL
same,Oxacillin MIC,[57],2 µg/mL
same,Oxacillin MIC,[58],<0.5 µg/mL
same,Oxacillin MIC,[59],0.25 µg/mL
same,Oxacillin MIC,[60],<0.5 µg/mL
same,Oxacillin MIC,[61],<0.5 µg/mL
same,Oxacillin MIC,[62],0.5 µg/mL
same,Oxacillin MIC,[63],<0.5 µg/mL
same,Oxacillin MIC,[64],<0.5 µg/mL
same,Oxacillin MIC,[65],0.25 µg/mL
same,Oxacillin MIC,[66],<0.5 µg/mL
same,Oxacillin MIC,[67],<0.5 µg/mL
same,Oxacillin MIC,[68],0.125 µg/mL
same,Oxacillin MIC,[69],<0.5 µg/mL
"O=C(OC1CC(O)(C(=O)O)CC(OC(=O)c2cc(O)c(O)c(O)c2)C1OC(=O)c1cc(O)c(O)c(O)c1)c1cc(O)c(O)c(O)c1 (stereo not shown) [3,4,5-trigalloylquinic acid]",effect of combination use with oxacillin (words),,excellent; also recorded: most potent
